# Experimental data taken from patent US9409905B2, “Antibacterial compounds and methods for use” (PTC THERAPEUTICS, INC., priority 2011, dated 2016).
# Columns and labels:
# A. baumannii MXX2240 = test: Antibacterial activity, MIC, resistant strain (Table 4); format: cell-based; conditions: Acinetobacter baumannii, MXX2240; resistant A. baumannii MMX2240, multi-drug resistant clinical isolate; read-out: MIC, MMX2240
# Method in brief: (§1)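 Values are minimum inhibitory concentrations in μg/mL from broth microdilution, meaning no macroscopically visible growth at that concentration. Resistant MXX isolates are multi-drug resistant clinical strains.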
# K. pneumoniae MXX1232 = test: as above; format: cell-based; conditions: Klebsiella pneumoniae, MXX1232; resistant K. pneumoniae MMX1232, multi-drug resistant clinical isolate; read-out: MIC, MMX1232
# Method in brief: as §1
# [1] = test system: Escherichia coli (E. coli) BAS849; test: Antibacterial activity, microbroth dilution MIC (Table 1); format: cell-based; conditions: microbroth dilution, super sensitive Gram-negative E. coli BAS849, read-out: MIC, BAS849
# Method in brief: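 Values are MICs (μg/mL): the smallest drug amount at which macroscopically visible bacterial growth is absent under assay conditions, from a microdilution method in broth.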
# [2] = test system: Staphylococcus aureus (S. aureus) 29213; test: as above; format: cell-based; conditions: microbroth dilution, Gram-positive S. aureus 29213, read-out: MIC, 29213
# Method in brief: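 Broth microdilution; endpoint = no macroscopic growth; value = lowest inhibiting concn, μg/mL.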
# E. coli 25922 = test: as above; format: cell-based, Escherichia coli; conditions: Escherichia coli; microbroth dilution; control Gram-negative E. coli 25922 strain; read-out: MIC, 25922
# Method in brief: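 MIC (μg/mL) read as lowest concentration with no macroscopically visible growth; microbroth dilution format. E. coli 25922 served as control Gram-negative strain.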
# [3] = test system: Acinetobacter baumannii (A. baumannii) BAA747; test: Antibacterial activity, MIC (Table 4); format: cell-based; conditions: A. baumannii BAA747, read-out: MIC, BAA747
# Method in brief: as §1
# E. coli ELZ4000 = test: Antibacterial activity, MIC, multi-drug resistant clinical isolate (Table 3); format: cell-based; conditions: Escherichia coli, ELZ4000, read-out: MIC ELZ4000
# Description: (§2) The antibacterial activity from a microbroth dilution method may be presented as the minimum inhibitory concentration (MIC in μg/mL). The MIC value is the lowest concentration of drug which prevents macroscopically visible growth under test conditions.
# (§3) Antibacterial activity of test compounds against E. coli ELZ4000 and E. coli ELZ4251 multi-drug resistant clinical isolates is shown in Table 3.
# E. coli ELZ4251 = test: as above; format: cell-based; conditions: Escherichia coli
# Description: as §2, §3
# E. coli LZ3111 = test: Antibacterial activity, MIC, quinolone resistant strain (Table 2); format: cell-based; conditions: Escherichia coli, LZ3111, read-out: MIC LZ3111
# Method in brief: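 Growth inhibition assessed by serial drug dilution in broth; endpoint was absence of macroscopically visible growth, reported as MIC, μg/mL.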
# [4] = test system: Klebsiella pneumoniae (K. pneumoniae) 35657; test: Antibacterial activity, MIC (Table 4); format: cell-based; conditions: K. pneumoniae 35657, read-out: MIC, 35657
# Method in brief: as §1
# [5] = test system: Pseudomonas aeruginosa (P. aeruginosa) 27853; test: Antibacterial activity, MIC (Table 5); format: cell-based; conditions: P. aeruginosa 27853, read-out: MIC, 27853
# Method in brief: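 Using a microbroth dilution format, the minimum inhibitory concentration was recorded as the lowest tested concentration that stopped visible bacterial growth, expressed in μg/mL.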
smiles,measurement,setting,value
"CCc1c(-c2ccc3c(ccn3CCO)c2)[nH]c(=O)c(C(=O)O)c1O [Cpd 24, 5-ethyl-4-hydroxy-6-(1-(2-hydroxyethyl)-1H-indol-5-yl)-2-oxo-1,2-dihydropyridine-3-carboxylic acid]",MIC,A. baumannii MXX2240,12.5 to 150 µg/mL
same,MIC,K. pneumoniae MXX1232,12.5 to 150 µg/mL
same,MIC,[1],< 1 µg/mL
same,MIC,[2],3.5 to 12.5 µg/mL
same,MIC,E. coli 25922,3.5 to 12.5 µg/mL
same,MIC,[3],3.5 to 12.5 µg/mL
same,MIC,E. coli ELZ4000,12.5 to 150 µg/mL
same,MIC,E. coli ELZ4251,12.5 to 150 µg/mL
same,MIC,E. coli LZ3111,12.5 to 150 µg/mL
"CCc1c(-c2ccc3c(c2)cc(CN2CC[C@@H](F)C2)n3C)[nH]c(=O)c(C(=O)O)c1O [Cpd 177, (R)-5-ethyl-6-(2-((3-fluoropyrrolidin-1-yl)methyl)-1-methyl-1H-indol-5-yl)-4-hydroxy-2-oxo-1,2-dihydropyridine-3-carboxylic acid]",MIC,K. pneumoniae MXX1232,12.5 to 150 µg/mL
same,MIC,[1],< 1 µg/mL
same,MIC,[2],3.5 to 12.5 µg/mL
same,MIC,E. coli 25922,1 to 3.5 µg/mL
same,MIC,[4],1 to 3.5 µg/mL
same,MIC,[5],12.5 to 150 µg/mL
same,MIC,E. coli ELZ4000,12.5 to 150 µg/mL
same,MIC,E. coli ELZ4251,3.5 to 12.5 µg/mL
same,MIC,E. coli LZ3111,3.5 to 12.5 µg/mL
"CCc1c(-c2ccc3c(c2)cc(CN2CCC(OC)C2)n3C)[nH]c(=O)c(C(=O)O)c1O (stereo not shown) [Cpd 179, 5-ethyl-4-hydroxy-6-(2-((3-methoxypyrrolidin-1-yl)methyl)-1-methyl-1H-indol-5-yl)-2-oxo-1,2-dihydropyridine-3-carboxylic acid]",MIC,A. baumannii MXX2240,3.5 to 12.5 µg/mL
same,MIC,K. pneumoniae MXX1232,12.5 to 150 µg/mL
same,MIC,[1],< 1 µg/mL
same,MIC,[2],3.5 to 12.5 µg/mL
same,MIC,E. coli 25922,1 to 3.5 µg/mL
same,MIC,[3],1 to 3.5 µg/mL
same,MIC,[5],12.5 to 150 µg/mL
same,MIC,E. coli ELZ4000,12.5 to 150 µg/mL
same,MIC,E. coli ELZ4251,3.5 to 12.5 µg/mL
same,MIC,E. coli LZ3111,3.5 to 12.5 µg/mL
"CCc1c(-c2ccc3c(c2)cc(CN2CCCC2CN(C)C)n3C)[nH]c(=O)c(C(=O)O)c1O (stereo not shown) [Cpd 202, 6-(2-((2-((dimethylamino)methyl)pyrrolidin-1-yl)methyl)-1-methyl-1H-indol-5-yl)-5-ethyl-4-hydroxy-2-oxo-1,2-dihydropyridine-3-carboxylic acid]",MIC,[1],< 1 µg/mL
same,MIC,[2],12.5 to 150 µg/mL
same,MIC,E. coli 25922,3.5 to 12.5 µg/mL
same,MIC,[3],12.5 to 150 µg/mL
same,MIC,[5],12.5 to 150 µg/mL
same,MIC,E. coli ELZ4000,12.5 to 150 µg/mL
same,MIC,E. coli ELZ4251,12.5 to 150 µg/mL
same,MIC,E. coli LZ3111,3.5 to 12.5 µg/mL
"CCc1c(-c2ccc3c(c2)cc(CN(CC2CC2)C2CCNCC2)n3C)[nH]c(=O)c(C(=O)O)c1O [Cpd 264, 6-(2-(((cyclopropylmethyl)(piperidin-4-yl)amino)methyl)-1-methyl-1H-indol-5-yl)-5-ethyl-4-hydroxy-2-oxo-1,2-dihydropyridine-3-carboxylic acid]",MIC,[1],1 to 3.5 µg/mL
same,MIC,[2],3.5 to 12.5 µg/mL
same,MIC,E. coli 25922,3.5 to 12.5 µg/mL
same,MIC,[5],12.5 to 150 µg/mL
same,MIC,E. coli ELZ4000,12.5 to 150 µg/mL
same,MIC,E. coli ELZ4251,3.5 to 12.5 µg/mL
same,MIC,E. coli LZ3111,1 to 3.5 µg/mL
"CCc1c(-c2ccc3c(c2)cc(CN2C[C@H]4CC[C@@H](N(C)C)[C@H]4C2)n3C)[nH]c(=O)c(C(=O)O)c1O [Cpd 278, 6-(2-(((3aR,4R,6aS)-4-(dimethylamino)hexahydrocyclopenta[c]pyrrol-2(1H)-yl)methyl)-1-methyl-1H-indol-5-yl)-5-ethyl-4-hydroxy-2-oxo-1,2-dihydropyridine-3-carboxylic acid]",MIC,[1],< 1 µg/mL
same,MIC,[2],3.5 to 12.5 µg/mL
same,MIC,E. coli 25922,1 to 3.5 µg/mL
same,MIC,[5],12.5 to 150 µg/mL
same,MIC,E. coli ELZ4000,12.5 to 150 µg/mL
same,MIC,E. coli ELZ4251,12.5 to 150 µg/mL
same,MIC,E. coli LZ3111,3.5 to 12.5 µg/mL
"CCc1c(-c2ccc3c(c2)cc(CN2C[C@H]4CCC[C@@H](N)[C@H]4C2)n3C)[nH]c(=O)c(C(=O)O)c1O [Cpd 284, 6-(2-(((3aR,4R,7aS)-4-amino-1H-isoindol-2(3H,3aH,4H,5H,6H,7H,7aH)-yl)methyl)-1-methyl-1H-indol-5-yl)-5-ethyl-4-hydroxy-2-oxo-1,2-dihydropyridine-3-carboxylic acid]",MIC,[1],< 1 µg/mL
same,MIC,[2],12.5 to 150 µg/mL
same,MIC,E. coli 25922,1 to 3.5 µg/mL
same,MIC,[5],3.5 to 12.5 µg/mL
same,MIC,E. coli ELZ4000,12.5 to 150 µg/mL
same,MIC,E. coli ELZ4251,12.5 to 150 µg/mL
same,MIC,E. coli LZ3111,3.5 to 12.5 µg/mL
"CCc1c(-c2ccc3c(c2)cc(CN2C[C@H]4C[C@@H](N)C[C@H]4C2)n3C)[nH]c(=O)c(C(=O)O)c1O [Cpd 287, 6-(2-(((3aR,5r,6aS)-5-aminohexahydrocyclopenta[c]pyrrol-2(1H)-yl)methyl)-1-methyl-1H-indol-5-yl)-5-ethyl-4-hydroxy-2-oxo-1,2-dihydropyridine-3-carboxylic acid]",MIC,[1],< 1 µg/mL
same,MIC,[2],3.5 to 12.5 µg/mL
same,MIC,E. coli 25922,3.5 to 12.5 µg/mL
same,MIC,[5],12.5 to 150 µg/mL
same,MIC,E. coli ELZ4000,12.5 to 150 µg/mL
same,MIC,E. coli ELZ4251,12.5 to 150 µg/mL
same,MIC,E. coli LZ3111,3.5 to 12.5 µg/mL
